Source: patent US9896445B2, “Heterocyclic inhibitors of ERK1 and ERK2 and their use in the treatment of cancer” (Asana Biosciences, LLC, priority 2015, dated 2018)
Like-named read-outs stand apart in the source and are kept apart here. One block for each compound: values may come before it.

Key:
ERK1 = target: T1, ERK1 (Homo sapiens, UniProt P27361); assay: ERK1 HTRF (biochemical) assay; settings: HTRF
T1 construct: purchased Jubilant Biosys
Description: ERK1 and ERK2 HTRF (Biochemical) Assays
These assays employed a homogeneous time resolved fluorescence (HTRF) technique. […] The plate was incubated at room temperature for 60 min with shaking. […] The IC50 values (half maximal inhibitory concentration values) were subsequently determined using a sigmoidal dose-response curve (variable slope) in GraphPad Prism® 5 software.

ERK2 = target: T2, ERK2 (Homo sapiens, UniProt P28482); assay: ERK2 HTRF (biochemical) assay; settings: HTRF
T2 construct: purchased Jubilant Biosys
Method in brief: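 Readout was time-resolved FRET between europium anti-phospho-MBP and streptavidin-APC after a 60-min room-temperature kinase step. That step used ERK2 (25 nM in enzyme mix), biotinylated MBP peptide (1 uM) and ATP (24 uM) from the substrate mix, in pH 7.5 Tris buffer.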

[1] = system: phospho-RSK (the downstream target of ERK1/2); assay: Pharmacodynamic assay, phospho-RSK in A375 tumor samples; format: in vivo, mice; settings: A375 tumor samples harvested at 1 h after dosing at 50 mg/kg PO, compared to vehicle control
Description: (§1) Foxn1 nu/nu strain of female mice (obtained from Charles River Laboratories, USA), 8-10 weeks of age, body weight range 23-25 g, were used for the tumor xenograft efficacy studies. Human cancer cell lines (such as melanoma A375, colorectal HT29, pancreatic BxPC3, colorectal HCT116, and lung A549) were first grown in vitro, and then about five million (5×10^6) of these cells in 100 μL of serum free medium were mixed with an equal amount of matrigel, and the entire mixture was injected subcutaneously at the right flank region of mice. The tumors were measured with Vernier calipers periodically after the first week of injection. When the tumor volume reached 120-150 mm^3 (about 3-4 weeks after injection) the animals were randomized into different groups so that their tumor volume was approximately the same in all groups.
(§2) For PO dosing, the compounds were prepared in a formulation containing 0.5% Methyl cellulose and 0.01% Tween 80. For IV, SC, or IP dosing, the compounds were prepared in 6% solutol-ethanol (1:1), 6% DMSO and 88% saline. Animals were dosed with compounds prepared in specific formulations via PO, IP or SC route either QD or BID at the required doses. Tumors size and body weights were measured twice or thrice in a week. Tumors were harvested at the end of the study after euthanizing the animals according to approved protocols. […]

[2] = system: human colon cancer xenograft model (HT-29) harboring B-RAF V600E mutation; assay: HT-29 human colon cancer xenograft model, tumor growth inhibition; format: in vivo, mice; settings: HT-29 xenograft
Description: (§3) In Vivo Studies in Tumor Xenograft Models
(§4) Tumor Cell Implantation and Randomization of Animals
as §1, with “When the tumor volume reached 120-150 mm^3 (about 3-4 weeks after injection) the animals were randomized into different groups so that their tumor volume was approximately the same in all groups.” left out
(§5) For PO dosing, the compounds were prepared in a formulation containing 0.5% Methyl cellulose and 0.01% Tween 80. […] Tumors size and body weights were measured twice or thrice in a week. […]
(§6) Changes in tumor volume (Δ volumes) for each treated (T) and control (C) group were calculated by subtracting the mean tumor volume on the first day of treatment (starting day) from the mean tumor volume on the specified observation day. […]
(§7) Percentage tumor growth inhibition was calculated as [100−% T/C]. Percentage body weight change was calculated as [(Body weight on specified observation day−Body weight on starting day)/Body weight on starting day]×100.

[3] = system: human pancreatic carcinoma xenograft model, BxPC3 (wild type KRAS); assay: BxPC3 human pancreatic carcinoma xenograft model, tumor growth inhibition; format: in vivo, mice
Description: as §3, §4
as §1, with “When the tumor volume reached 120-150 mm^3 (about 3-4 weeks after injection) the animals were randomized into different groups so that their tumor volume was approximately the same in all groups.” left out
as §5, §6, §7

[4] = system: human melanoma xenograft model (A375) harboring B-RAF V600E mutation; assay: A375 human melanoma xenograft model, tumor growth inhibition; format: in vivo, mice
Description: as §3, §4, §1
(§8) Determination of In Vivo Efficacy of Tumor Growth Inhibition
as §2, §6, §7

[5] = system: human colon cancer xenograft model (HCT116; harboring KRAS mutation); assay: HCT116 human colon cancer xenograft model, tumor growth inhibition; format: in vivo, mice; settings: 50 mg/kg BID orally for 24 days
Description: as §3, §4
as §1, with “When the tumor volume reached 120-150 mm^3 (about 3-4 weeks after injection) the animals were randomized into different groups so that their tumor volume was approximately the same in all groups.” left out
as §5, §6, §7

[6] = system: human lung carcinoma xenograft model (A549; harboring KRAS mutation); assay: A549 human lung carcinoma xenograft model, tumor growth inhibition; format: in vivo, mice; settings: 50 mg/kg BID orally for 20 days
Description: as §3, §4, §1, §8, §2, §6, §7

[7] = system: HCT116 (colorectal carcinoma, K Ras G13D) cells; assay: Cell proliferation (Alamar Blue) assay, HCT116; format: cell-based, human
Description: (§9) Cell Proliferation (Alamar Blue) Assay
(§10) HT-29 (colorectal carcinoma, B-RafV600E), HCT116 (colorectal carcinoma, K Ras G13D), A375 (melanoma, B-RafV600E) and SK-Mel2 (melanoma, NRAS Q61R) cells (obtained from ATCC, USA) were seeded (5000 cells/well) in 96-well tissue culture plate and incubated at 37° C./5% CO2 for 16-24 hours. The cells were then treated with compounds, at concentrations typically from 0.0005 to 10 uM prepared in 3-fold serial dilutions. The plates were then incubated for 72 h at 37° C./5% CO2 in a moist environment. Then Alamar Blue™ reagent (final concentration 1×) was added to each well and incubated for 1-3 h at 37° C./5% CO2. The plates were read on fluorescence reader at 540 nm excitation and 590 nm emission wavelengths. The IC50 values were subsequently determined using a sigmoidal dose-response curve (variable slope) using GraphPad Prism® 5 software.

[8] = system: HT-29 (colorectal carcinoma, B-RafV600E) cells; assay: Cell proliferation (Alamar Blue) assay, HT-29; format: cell-based, human; settings: HT29 cells
Description: as §9, §10

phospho-RSK1(S380) = assay: Phospho-RSK1(S380) ELISA assay in HT-29 cells; format: cell-based, human; settings: read-out: Mechanist Cell Assay RSK1 Phos HT29 IC50
Description: Phospho-RSK1(S380) ELISA Assay
HT-29 cells (colorectal carcinoma, B-RafV600E); obtained from ATCC, USA) were seeded (60,000 cells/well) in a 96-well plate and incubated at 37° C./5% CO2 overnight and then treated with desired compound dilutions for 2 h. Medium was removed and cells were rinsed once with ice-cold 1×PBS, then 0.070 mL ice-cold 1× cell lysis buffer containing 1 mM PMSF was added to each well and the plate was incubated on a shaker for 2 h and 30 min at 4° C. The plate was then centrifuged for 20 min (×4000 rpm) at 4° C. and the supernatant was transferred to a new plate. Cell lysates were diluted with sample diluent at a ratio of 1:1. The ELISA was then carried out following the manufacturer's protocol (PathScan® phospho-RSK1(Ser380) Sandwich ELISA Kit, Cell Signaling Technologies). The plate was read at 450 nm within 30 min after adding STOP solution. The IC50 values were subsequently determined using a sigmoidal dose-response curve (variable slope) in GraphPad Prism® 5 software.

[9] = 50 mg/kg BID orally for 19 days
[10] = Homo sapiens, HCT-116, HCT116 cells

T2 sequence (P28482 whole entry): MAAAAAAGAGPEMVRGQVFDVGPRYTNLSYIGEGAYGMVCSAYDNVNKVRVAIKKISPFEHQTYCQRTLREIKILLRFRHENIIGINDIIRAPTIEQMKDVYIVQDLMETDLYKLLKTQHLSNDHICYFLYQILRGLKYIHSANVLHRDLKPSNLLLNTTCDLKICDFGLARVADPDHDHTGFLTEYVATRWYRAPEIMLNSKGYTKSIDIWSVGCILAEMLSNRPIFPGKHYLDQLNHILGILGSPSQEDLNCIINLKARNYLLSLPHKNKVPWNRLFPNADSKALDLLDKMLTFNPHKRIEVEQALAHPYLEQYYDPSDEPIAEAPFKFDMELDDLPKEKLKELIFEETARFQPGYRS
T1 sequence (P27361 whole entry): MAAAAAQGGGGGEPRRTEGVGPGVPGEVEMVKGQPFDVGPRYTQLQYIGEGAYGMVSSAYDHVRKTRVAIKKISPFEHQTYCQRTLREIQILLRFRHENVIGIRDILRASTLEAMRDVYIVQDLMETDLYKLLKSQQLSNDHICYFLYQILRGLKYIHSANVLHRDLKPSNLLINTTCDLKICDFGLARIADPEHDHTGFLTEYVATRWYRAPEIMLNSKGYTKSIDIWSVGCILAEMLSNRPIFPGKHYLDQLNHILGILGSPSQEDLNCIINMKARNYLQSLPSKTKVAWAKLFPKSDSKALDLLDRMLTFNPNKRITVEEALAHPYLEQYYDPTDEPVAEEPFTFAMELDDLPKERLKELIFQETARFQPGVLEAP

IC50 (ERK1): < 50 nM
IC50 (ERK2): ≤ 50 nM
Compound: Cc1cnc(NC2CCOCC2)nc1-n1cnc(C(=O)NC(CO)c2cccc(Cl)c2)c1 (stereo not shown) [Compound 201, N-(1-(3-chlorophenyl)-2-hydroxyethyl)-1-(5-methyl-2-((tetrahydro-2H-pyran-4-yl)amino)pyrimidin-4-yl)-1H-imidazole-4-carboxamide]
inhibition of phospho-RSK [1]: about 66%
body weight loss ([2]; 50 mg/kg BID orally for 20 days): no significant body weight loss
tumor growth inhibition ([2]; dosed orally at 50 mg/kg BID for 20 days): approximately 50%
body weight loss ([3]; 50 mg/kg BID orally for 25 days): no significant body weight loss
tumor growth inhibition ([3]; dosed orally at 50 mg/kg BID for 25 days): about 63%

Compound: Cc1cnc(NC2CC(F)(F)C2)nc1-n1cnc(C(=O)N[C@H](CN)c2cccc(Cl)c2)c1 [Example 259, (S)-N-(2-amino-1-(3-chlorophenyl)-ethyl)-1-(2-((3,3-difluorocyclobutyl)amino)-5-methyl-pyrimidin-4-yl)-1H-imidazole-4-carboxamide]
body weight loss [4, 9]: no significant body weight loss
body weight loss [5]: no significant body weight loss

Compound: Cc1cnc(NC2CC(F)(F)C2)nc1-n1cnc(C(=O)N[C@H](CN)c2cccc(Cl)c2)c1.O=S(=O)(O)c1ccccc1 [Example 304, (S)-N-(2-amino-1-(3-chlorophenyl)-ethyl)-1-(2-((3,3-difluorocyclobutyl)amino)-5-methyl-pyrimidin-4-yl)-1H-imidazole-4-carboxamide benzenesulfonic acid salt]
body weight loss [6]: no significant body weight loss

Compound: Cc1cnc(NC2CCOCC2)nc1-n1cnc(C(=O)N[C@H](CN)c2cccc(Cl)c2)c1.O=S(=O)(O)c1ccccc1 [Example 300, (S)-N-(2-amino-1-(3-chlorophenyl)-ethyl)-1-(5-methyl-2-((tetrahydro-2H-pyran-4-yl)amino)-pyrimidin-4-yl)-1H-imidazole-4-carboxamide benzenesulfonic acid salt]
body weight loss [6]: no significant body weight loss

IC50 (ERK1): < 50 nM
IC50 (ERK2): ≤ 50 nM
IC50 [7, 10]: > 2500 nM
Compound: Cc1cnc(Nc2ccc(F)cc2)cc1-n1cnc(C(=O)NC(CN)c2ccccc2)c1 (single isomer, unassigned) [Compound 227, N-(2-amino-1-phenylethyl)-1-(2-((4-fluorophenyl)-amino)-5-methyl-pyridin-4-yl)-1H-imidazole-4-carboxamide]

IC50 (ERK1): < 50 nM
IC50 (ERK2): 50 to 100 nM
melting point: 154.7 °C
Compound: Cc1cnc(Nc2ccc(F)cc2)cc1-n1cnc(C(=O)NC(CN)c2ccccc2)c1 (stereo not shown) [Compound 191, N-(2-amino-1-phenylethyl)-1-(2-((4-fluorophenyl)amino)-5-methylpyridin-4-yl)-1H-imidazole-4-carboxamide]

Compound: Cc1cnc(NC2CCOCC2)nc1-n1cnc(C(=O)N[C@H](CN)c2cccc(Cl)c2)c1 (single isomer, unassigned) [Compound 225a]
IC50 (ERK1): < 50 nM
IC50 (ERK2): ≤ 50 nM
body weight loss [4, 9]: no significant body weight loss
body weight loss [5]: no significant body weight loss

Compound: Cc1cnc(NC2CCOCC2)nc1-n1cnc(C(=O)NC(CN)c2cc(F)cc(Cl)c2)c1 (stereo not shown) [Compound 236, N-(2-amino-1-(3-chloro-5-fluoro-phenyl)ethyl)-1-(5-methyl-2-((tetrahydro-2H-pyran-4-yl)amino)-pyrimidin-4-yl)-1H-imidazole-4-carboxamide]
IC50 [8]: ≤ 100 nM
IC50 ([7]; HCT116 cells): ≤ 100 nM
IC50 (phospho-RSK1(S380); HT29 cells): ≤ 100 nM

Compound: Cc1cnc(NC2CCOCC2)nc1-n1cnc(C(=O)N[C@H](CN)c2cc(F)cc(Cl)c2)c1.O=S(=O)(O)c1ccccc1 [Example 302, (S)-N-(2-amino-1-(3-chloro-5-fluoro-phenyl)ethyl)-1-(5-methyl-2-((tetrahydro-2H-pyran-4-yl)amino)-pyrimidin-4-yl)-1H-imidazole-4-carboxamide benzenesulfonic acid salt]
body weight loss [6]: no significant body weight loss

IC50 (ERK1): < 50 nM
IC50 (ERK2): ≤ 50 nM
IC50 [7, 10]: 500 to 2500 nM
IC50 (phospho-RSK1(S380); Homo sapiens, HT-29, HT29 cells): 250 to 500 nM
Compound: Cc1cnc(NC2CCOCC2)nc1-n1cnc(C(=O)N[C@]2(c3cccc(Cl)c3)C[C@H](O)C2)c1 [Compound 245, N-((1s,3s)-1-(3-chlorophenyl)-3-hydroxycyclobutyl)-1-(5-methyl-2-((tetrahydro-2H-4-yl)amino)pyrimidin-4-yl)-1H-imidazole-4-carboxamide]

IC50 (ERK1): < 50 nM
IC50 (ERK2): ≤ 50 nM
melting point: 145 °C
Compound: Cc1cnc(NC2CCOCC2)nc1-n1cnc(C(=O)N[C@H](CO)c2cccc(Cl)c2)c1 [Compound 211, (S)-N-(1-(3-chlorophenyl)-2-hydroxyethyl)-1-(5-methyl-2-((tetrahydro-2H-pyran-4-yl)amino)pyrimidin-4-yl)-1H-imidazole-4-carboxamide]
body weight loss ([4]; 50 mg/kg BID orally for 17 days): no significant body weight loss
inhibition of phospho-RSK [1]: ~84%
